{"source": "patent US10472677B2", "about": "“Translational dysfunction based therapeutics” (Translational Therapeutics, Inc., priority 2005, dated 2019)", "key": {"[1]": {"system": "cyclin D1 mRNA transport in NIH 3T3 cells", "assay": "nucleocytoplasmic mRNA transport, fractionation with Northern / quantitative PCR", "format": "cell-based, mouse", "method": "Cells were washed twice with PBS and lysed by slow pipetting in 0.14 M NaCl/10 mM Tris.HCl (pH 8.4)/1.5 mM MgCl2/0.5% (vol/vol) Nonidet P-40/1 mM DTT/100 units/ml RNasin (Promega) at 4° C. Lysed suspensions were centrifuged at 1,000×g for 3 min at 4° C., and the supernatant was saved as the cytoplasmic fraction. Nuclear pellets were resuspended in lysis buffer, and 1/10th volume of 3.3% (wt/vol) sodium deoxycholate and 6.6% (vol/vol) Tween 40 was added under slow vortexing, and incubated at 4° C. for 5 min. Nuclei were sedimented by centrifugation at 1,000×g for 3 min at 4° C., and the supernatant (postnuclear fraction) was added to the cytoplasmic fraction. This yielded intact nuclei, as observed by using light microscopy, with no significant cytoplasmic contamination, as evaluated using tRNA^Lys and β-actin contents. Fractionated cytoplasm was free of nuclear contamination, as indicated by absence of U6 snRNA and Sc35.\nRNA from whole cells or nuclear and cytoplasmic fractions was extracted by using Trizol according to manufacturer's instructions (GIBCO). Isolated RNAs were treated with RNase-free DNase I (Promega) and 5-1 μg aliquots were resolved on 1% formaldehydeagarose gel and transferred to a positively charged nylon membrane (Roche, Nutley, N.J.). Membranes were prehybridized in ULTRAhyb buffer (Ambion) and probed with 20 μM cyclin D1 cDNA probe, 5 μM β-actin cDNA probe, 30 μM biotinylated tRNA^Lys antisense oligo probe, and 30 μM biotinylated U6 small nuclear RNA antisense oligo probe. cDNA probes were biotinylated by using BrightStar psoralen-biotin and observed by using CDP Star chemiluminescence according to the manufacturer's instructions (Ambion). Band intensity and film response were quantified by using NIH IMAGE.\nCell pellets (500 mg) were homogenized in 1 ml of ice cold lysis buffer (20 mM Hepes/10 mM magnesium acetate/100 mM potassium acetate, pH 7.5) supplemented with protease inhibitors (EDTA-free Complete, Roche) and 400 units/ml of SUPERasine (Ambion), and incubated for 30 min on ice with occasional vortexing. Lysates were sedimented at 3,000×g for 10 min at 4° C. to pellet nuclei and cell debris. Supernatants were sedimented at 12,000×g for 20 min at 4° C. to pellet mitochondria. […] RNA content of fractions was ascertained by using the ratio of absorbance at 260:280 nm. […] RNA from each fraction was quantified by spectrophotometry and 40 ng was converted into cDNA by using the Sensiscript reverse transcription kit (Qiagen, Valencia, Calif.). Quantitative real-time PCR was carried out in triplicate by using the QuantiTect SYBR green real-time PCR Kit (Qiagen) in an Opticon thermal cycler (MJ Research, Waltham, Mass.). […] Obtained real-time PCR profiles were analyzed by using Opticon software (MJ Research)."}, "Akt": {"system": "Akt", "assay": "Akt phosphorylation", "format": "cell-based", "conditions": "FIGS. 35 and 36"}, "eIF4E W73A": {"target": "T1, eIF4E W73A (Mus musculus, UniProt P63073, W73A)", "T1 construct": "made in house", "T1 sequence (P63073 whole entry W73A, the tested form may be a part)": "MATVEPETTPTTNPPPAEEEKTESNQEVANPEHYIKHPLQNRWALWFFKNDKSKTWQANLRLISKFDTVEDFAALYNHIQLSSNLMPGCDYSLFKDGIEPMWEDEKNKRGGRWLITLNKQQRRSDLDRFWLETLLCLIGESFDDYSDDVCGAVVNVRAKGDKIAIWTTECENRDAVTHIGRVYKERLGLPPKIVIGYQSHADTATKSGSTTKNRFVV", "assay": "tryptophan fluorescence quenching titration, dorsal surface mutant", "format": "binding", "conditions": "relative to wild-type eIF4E", "method": "For fluorescence titrations, mouse eIF4E, which differs from human eIF4E by four nonconserved amino acids, was produced as described. For NMR spectroscopy, mouse eIF4E was expressed as a fusion with the B1 domain of protein G (G4E, kind gift of Gerhard Wagner, Harvard University, Cambridge, Mass.), in BL21 (DE-3) cells by induction with 0.8 mM isopropyl-β-D-thiogalactopyranoside at 18° C. for 20 h in M9 minimal media containing 1 g/l ^15NH4Cl as the sole nitrogen source (Cambridge Isotopes). […] Eluate was dialyzed extensively against 0.1 M NaCl/50 mM Na2PO4 (pH 6.5)/5 mM DTT at 4° C. to produce apo-G4E, as verified by using NMR spectroscopy and fluorescence titrations. […]\nFluorescence measurements were performed by using a home-built fluorimeter, as described. All titrations were performed in 0.3 M NaCl/10 mM Na2PO4 (pH 7.5)/1 μM zinc in 0.3×0.3 cm^2 fluorescence cuvette (Hellma), by using eIF4E concentration of 2 μM. […] Corrected relative fluorescence intensities were normalized, and fluorescence quenching curves were fit to a heuristic single-site-binding expression: I/I0=Kd^n/(x^n+Kd^n) where x is ligand concentration, Kd is the apparent dissociation constant, and n is the Hill coefficient."}, "[2]": {"conditions": "cited from earlier work"}}}
{"smiles": "NC(=O)c1ncn([C@@H]2O[C@H](CO)[C@@H](O)[C@H]2O)n1", "note": "[Ribavirin, 1-β-D-ribofuranosyl-1,2,4-triazole-3-carboxamide]", "values": [{"measurement": "nuclear retention of cyclin D1 mRNA", "setting": "[1]; 0.1 μM, quantitative real-time PCR", "value": 2, "unit": "fold"}, {"measurement": "EC50", "setting": "[1]; Mus musculus, NIH3T3, NIH 3T3, read-out: apparent EC50 inhibition of nucleocytoplasmic cyclin D1 mRNA transport", "value": "~1000", "unit": "nM"}, {"measurement": "concentration of nearly complete nuclear retention of cyclin D1 mRNA", "setting": "[1]; NIH 3T3", "value": 100, "unit": "µM"}, {"measurement": "nucleocytoplasmic transport of B-actin and VEGF mRNAs", "setting": "[1]; at 100 uM", "value": "not affected"}, {"measurement": "effect on Akt phosphorylation", "setting": "Akt", "value": "inhibits"}, {"measurement": "effect of W73A mutation on Ribavirin affinity", "setting": "eIF4E W73A", "value": "no significant effect"}, {"measurement": "solubility in anhydrous ethanol", "setting": "[2]; anhydrous ethanol", "value": "sparingly soluble"}, {"measurement": "solubility in water", "setting": "[2]; water", "value": "freely soluble"}]}
